Measurements from patent US20190307771A1, “METHODS AND COMPOSITIONS FOR THE TREATMENT OF CANCER AND METABOLIC DISEASES” (THE REGENTS OF THE UNIVERSITY OF CALIFORNIA, priority 2016, published 2019).
“Also recorded” adds a separate entry of the source.

What was measured:
[1] = tested on: Class I (HDAC1, 2, 3, and 8) and Class IIa (HDAC4, 5, 7, and 9); settings: cited from earlier work
miR-22 [2] = experiment: miR-22 expression in HCT116 cells (qRT-PCR); assay type: cell-based; settings: 24 hours, RA 10 μM, butyrate 5 mM, propionate 10 mM, valerate 10 mM, SAHA 5 μM
Method: To study the effect of RA and HDAC inhibitors on miR-22 expression, HCT116 cells were treated with RA, butyrate, propionate, valerate, and SAHA. The SCFA concentrations used were within physiologic ranges^35.
Total RNA was extracted with TRIzol Reagent (Invitrogen, Carlsbad, Calif.), and cDNA was generated using High Capacity RNA-to-cDNA Kit (Applied Biosystems, Carlsbad, Calif.). qRT-PCR was performed on ABI 7900HT Fast Real time PCR system using Power SYBR® Green PCR Master Mix (Applied Biosystems, Carlsbad, Calif.).

[3] = tested on: HCT116 colon cancer cells; experiment: MTT cell viability assay in HCT116 cells; assay type: cell-based; settings: 48 hours, RA 10 μM, butyrate 5 mM, propionate 10 mM, valerate 10 mM, SAHA 5 μM, vs. DMSO
Method: Cell viability was monitored by MTT assay.
HCT116 cells (American Type Culture Collection) were maintained in McCoy's 5a medium from Gibco (Life Technologies, Carlsbad, Calif.) with 10% FBS. Cells were plated (1×10^6 cells per 60-mm dish, 2×10^5 cells per 6-well plates, and 1×10^5 cells per 24-well plates) overnight prior to treatment or transfection.
Cells were stained with 3-(4,5-dimethylthiazol-2-O-2,5-diphenyltetrazolium bromide (MTT, Sigma-Aldrich, St. Louis, Mo.) and measured at 570 nm with Microplate Reader (Biotek, Winooski, Vt.).

miR-22 [4] = settings: published data; cited from earlier work
[5] = tested on: CYCLIN A2, HDAC1, HDAC4, SIRT1; experiment: Protein levels in Huh7 liver cancer cells; settings: liver Huh7 cells treated with miR-22 mimic
[6] = tested on: HDAC1, HDAC4, SIRT1, cyclin A2 (CCNA2); experiment: Western blot of protein deacetylases and cyclin A2 in HCT116 cells; assay type: cell-based; settings: HCT116 cells, 48 hours after transfection, vs. scramble control
Method: HCT116 cells were transfected with either an miR-22 mimic or a scramble control, and 48 hours later the protein levels of HDAC4, SIRT1, and cyclin A2 were measured (FIG. 3B). The expression of all three proteins was reduced by treatment with the miR-22 mimic.
(§1) Western blot and immunoprecipitation were performed as described previously^22. Specific antibodies used included anti-NUR77, RARβ, SIRT1, β-actin, and IgG (Santa Cruz Biotechnology, Santa Cruz, Calif.), phospho-JNK1/2, total JNK1/2, cleaved caspase3, HDAC1 and HDAC4 (Cell Signaling Technology, Beverly, Mass.), and CCNA2 (Novus Biologicals, Littleton, Colo.). To detect protein acetylation of NUR77 and RARβ, cell lysates (500 μg) were incubated with anti-NUR77, RARβ, or IgG antibody (1 μg), precipitated by adding Dynabeads (30 μl, Life Technologies, Carlsbad, Calif.), and probed with anti-Acetyl-lysine antibody (Cell Signaling Technology, Beverly, Mass.). To study the interaction between RARβ and NUR77, whole-cell lysates were precipitated with anti-RARβ or NUR77 antibody followed by Western blot using anti-NUR77 or RARβ antibody.

NUR77 and RARβ = experiment: Immunoprecipitation/Western blot: protein acetylation of NUR77 and RARβ; assay type: cell-based; settings: HCT116 cells; IP with anti-NUR77 or anti-RARβ, anti-acetyl lysine blot
From the text: FIG. 12A depicts the expression levels of proteins that were extracted from HCT116 cells and immunoprecipitated by anti-NUR77 and RARβ antibodies or IgG, followed by Western blot using an anti-acetyl lysine antibody. […] The mRNA levels of NUR77 target genes BRE as well as CCND2 and RARβ target genes RARβ and CYP26A1 in HCT116 cells are shown in FIG. 12C.
NUR77 and RARβ acetylation status was also studied because protein acetylation alters nuclear receptor activity^37. […] To study the effect of RA/butyrate in modulating NUR77 and RARβ transcriptional activity, ChIP-qPCR and RT-PCR were performed to determine receptor binding to transcriptional regulatory regions and mRNA levels of downstream targets, respectively.
as §1

HCT116-generated tumors = experiment: Mouse xenograft tumor model; assay type: in vivo, Athymic nude mice; settings: adenoviral miR-22 intratumorally
Method: Athymic nude mice (female, 6 weeks old, Jackson Laboratory) were subcutaneously injected by HCT116 cells (1×10^6) in the flank region. When tumor size reached […] of cross-sectional area, a combination of RA plus butyrate or adenoviral-expressing miR-22 (Ad-miR-22) was administered. For RA plus butyrate treatment, mice received RA (2.5 μg/g body weight) and butyrate (1.2 mg/g body weight) intraperitoneally (IP) 5 times a week for 2 weeks. For Ad-miR-22 treatment, mice received Ad-miR-22 (1×10^9 Pfu) intratumorally (IT) twice a week for 2 weeks. Control groups received 1% DMSO in PBS and adenovirus scramble, respectively. Tumor dimensions were measured and tumor volume was calculated using V (volume)=W (width)^2×L (length)/2. All experimental protocols were approved by the University of California Davis Animal Care and Use Committee.

For `CC(/C=C/C(=O)NO)=C\[C@@H](C)C(=O)c1ccc(N(C)C)cc1` [trichostatin A], the “Inhibition of HDAC classes” value [1] is given as “inhibit Class I (HDAC1, 2, 3, and 8) and Class IIa (HDAC4, 5, 7, and 9)”.
In the case of `CCCCC(=O)O` [valerate], the miR-22 expression level (miR-22 [2]) is reported as “induced; also recorded: increased miR-22 level” and the Cell viability [3] is reported as “Markedly reduced cell viability”.
For `C=C1CC[C@H](O)C/C1=C/C=C1\CCC[C@]2(C)[C@@H]([C@H](C)CCCC(C)C)CC[C@@H]12` [vitamin D3], the miR-22 induction (miR-22 [4]) is listed as “induce miR-22”.
With “miR-22: microRNA, SEQ ID NO:1 AAGCUGCCAGUUGAAGAACUGU (listed as RNA, chemistry not fully specified)” the “HDAC1, HDAC4, and SIRT1 levels” value [5] was “inhibited multiple HDACs”, the “Protein levels of HDAC1, HDAC4, SIRT1, cyclin A2 after miR-22 (mimic) transfection” value [6] was “inhibited multiple HDACs; also recorded: inhibits HDAC1, HDAC4 and SIRT1; also recorded: HDAC1 protein level was reduced; also recorded: reduced HDAC4 and SIRT1; also recorded: suppress HDAC4 and SIRT1 expression; also recorded: reduces protein deacetylases, including HDAC1” and the “Acetylated NUR77 and RARβ” value (NUR77 and RARβ) was “increased acetylated NUR77 and RARβ”. For the same compound, the “HDACs and CCNA2 protein levels in tumors” value (HCT116-generated tumors) was “silenced HDACs and CCNA2”, the “NUR77 and RARβ protein levels in tumors” value (HCT116-generated tumors) was “upregulating NUR77 and RARβ” and the “Colon tumor growth / tumor size” value (HCT116-generated tumors; xenograft mice) was “inhibited colon cancer growth; also recorded: effective in inhibiting the growth of colon cancer; also recorded: remarkable effectiveness”.
